In patent publication US8765779B2, “Tricyclic derivatives and their pharmaceutical use and compositions” (Cephalon, Inc., priority 2009, dated 2014):
Like-named read-outs stand apart in the source and are kept apart here.

Biological target: T1, human 5-HT6 receptor (Homo sapiens, UniProt P50406)
T1 construct: host or cells: CHO-K1 cells, stably transfected; membranes prepared in house
Test: Human 5-HT6 Receptor Binding Assay ([3H]LSD displacement, scintillation beads)
Conditions: membranes of CHO-K1 cells with recombinant human 5-HT6, 4 nM [3H]LSD, read-out: h5-HT6 (Ki)
Protocol: Human 5-HT6 Receptor Binding Assay
Membranes were prepared from CHO—K1 cells stably transfected with the human 5-HT6 receptor (Euroscreen; ES-316-C). The cells were grown in Gibco Advanced DMEM-F12 (Cat#12634010) containing 2% dialyzed FBS (Hyclone Cat#SH30079.03). The cells were harvested in phosphate buffered saline (PBS) containing 0.1 mM EDTA and pelleted by centrifugation (1000×g), the supernatant was discarded and the pellets were stored at −80° C. prior to membrane preparation. Membranes were prepared as previously described (J Bio Chem. 1992, 267 (14) 9844-51). Briefly, frozen cell pellet was resuspended in a lysis buffer containing 5 mM Tris-HCl (pH 7.5), 5 mM EDTA and 1 complete EDTA-free protease inhibitor tablet (Roche Applied Science, Indianapolis, Ind.) per 50 mL buffer, and homogenized with a tissue homogenizer. The cell lysate was then centrifuged at 40,000×g for 30 min at 4° C. to collect the membranes. The membrane pellets were washed in membrane buffer (50 mM Tris-HCl (pH 7.5), 0.6 mM EDTA, 5 mM MgCl2, 1 complete EDTA-free protease inhibitor tablet per 50 mL buffer) using a tissue homogenizer. The membranes were centrifuged at 40,000×g for 30 min at 4° C. and the pellets were resuspended in membrane buffer containing 250 mM sucrose, and protein concentration was determined using the Coomassie Plus kit (Pierce Biotechnology, Rockford, Ill.).
Membranes prepared from cells expressing recombinant human 5-HT6 receptor (h5-HT6) were resuspended in assay buffer containing 50 mM Tris HCl, (pH7.4), 4 mM CaCl2, 10 μg/mL saponin, and 0.1% (w/v) ascorbic acid. Membranes were preincubated using 1.75 μg membrane protein and 0.25 mg FlashBlue scintillation beads (PerkinElmer catalogue #FB001) per well at 4° for 30 min. […] Test compounds or assay controls for total and non-specific binding were diluted in DMSO as 100× solutions and serially diluted by half log concentrations on a Perkin Elmer JANUS Automated Workstation. Serotonin (10 μM final concentration) was used to determine non-specific binding in the assay. Plates were read using the Microbeta Trilux 1450 LSC and luminescence counter. Data were analyzed by nonlinear […] using the dose-response equation (variable slope) to calculate IC50 in XLfit4 (ID Business Solutions Inc.): y=(Bottom+((Top−Bottom)/(1+((IC50/x)^Hill slope))))
Ki value was then calculated according to the Cheng-Prusoff method using the equation below (Cheng and Prusoff, 1973): Ki,app=IC50/(1+[radioligand]/Kd))

T1 sequence (P50406 whole entry): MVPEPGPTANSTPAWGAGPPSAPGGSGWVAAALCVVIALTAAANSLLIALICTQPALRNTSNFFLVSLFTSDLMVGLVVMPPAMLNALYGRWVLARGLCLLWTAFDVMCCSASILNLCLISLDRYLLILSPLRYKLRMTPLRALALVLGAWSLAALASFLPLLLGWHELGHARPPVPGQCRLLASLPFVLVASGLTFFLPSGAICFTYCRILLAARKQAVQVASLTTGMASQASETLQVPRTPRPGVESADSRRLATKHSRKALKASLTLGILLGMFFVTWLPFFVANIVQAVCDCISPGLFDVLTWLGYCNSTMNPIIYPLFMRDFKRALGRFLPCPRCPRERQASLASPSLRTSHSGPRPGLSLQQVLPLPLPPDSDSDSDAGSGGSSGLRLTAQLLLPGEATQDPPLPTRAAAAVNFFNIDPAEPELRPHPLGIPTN

Compound	Ki (Table 1, class symbols) [nM]	Ki (specific data) [nM]
1,2,3,4,4a,9a-hexahydro[1]benzofuro[2,3-c]pyridin-7-yl naphthalene-2-sulfonate [Example 660]	< 500	11.4
7-[(3,5-Difluorophenyl)sulfonyl]-2′,3,3′,4,4a,5′,6′,9a-octahydro-2H-spiro[1-benzofuro[2,3-c]pyridine-1,4′-pyran]hydrochloride [Example 623]	> 1000	
COc1ccccc1S(=O)(=O)c1ccc2c(c1)OC1CNCCC21C (racemic) [Example 3, 7-[(2-methoxyphenyl)sulfonyl]-4a-methyl-1,2,3,4,4a,9a-hexahydro[1]benzofuro[2,3-c]pyridine]	< 500	
COc1cccc(S(=O)(=O)c2ccc3c(c2)OC2CNCCC32C)c1 (racemic) [Example 4, 7-[(3-methoxyphenyl)sulfonyl]-4a-methyl-1,2,3,4,4a,9a-hexahydro[1]benzofuro[2,3-c]pyridine]	< 500	
COc1ccc(S(=O)(=O)c2ccc3c(c2)OC2CNCCC32C)cc1 (racemic) [Example 5, 7-[(4-methoxyphenyl)sulfonyl]-4a-methyl-1,2,3,4,4a,9a-hexahydro[1]benzofuro[2,3-c]pyridine]	500 to 1000	
Cc1cccc(S(=O)(=O)c2ccc3c(c2)OC2CNCCC32C)n1 (racemic) [Example 6, 4a-methyl-7-[(6-methylpyridin-2-yl)sulfonyl]-1,2,3,4,4a,9a-hexahydro[1]benzofuro[2,3-c]pyridine]	> 1000	
Cc1ccnc(S(=O)(=O)c2ccc3c(c2)OC2CNCCC32C)n1 (racemic) [Example 7, 4a-methyl-7-[(4-methylpyrimidin-2-yl)sulfonyl]-1,2,3,4,4a,9a-hexahydro[1]benzofuro[2,3-c]pyridine]	> 1000	
CC12CCNCC1Oc1cc(S(=O)(=O)c3ccccn3)ccc12 (racemic) [Example 8, 4a-methyl-7-(pyridin-2-ylsulfonyl)-1,2,3,4,4a,9a-hexahydro[1]benzofuro[2,3-c]pyridine]	> 1000	
CC12CCNCC1Oc1cc(S(=O)(=O)c3ncccn3)ccc12 (racemic) [Example 9, 4a-methyl-7-(pyrimidin-2-ylsulfonyl)-1,2,3,4,4a,9a-hexahydro[1]benzofuro[2,3-c]pyridine]	> 1000	
CCOc1cccc(S(=O)(=O)c2ccc3c(c2)OC2CNCCC32C)c1 (racemic) [Example 10, 7-[(3-ethoxyphenyl)sulfonyl]-4a-methyl-1,2,3,4,4a,9a-hexahydro[1]benzofuro[2,3-c]pyridine]	< 500	
CC12CCNCC1Oc1cc(S(=O)(=O)c3cccc(F)c3)ccc12 (racemic) [Example 11, 7-[(3-fluorophenyl)sulfonyl]-4a-methyl-1,2,3,4,4a,9a-hexahydro[1]benzofuro[2,3-c]pyridine]	< 500	
CC(C)Oc1cccc(S(=O)(=O)c2ccc3c(c2)OC2CNCCC32C)c1 (racemic) [Example 12, 4a-methyl-7-{[3-(propan-2-yloxy)phenyl]sulfonyl}-1,2,3,4,4a,9a-hexahydro[1]benzofuro[2,3-c]pyridine]	< 500	
CC12CCNCC1Oc1ccc(S(=O)(=O)c3ccncc3)cc12 (racemic) [Example 13, 4a-methyl-6-(pyridin-4-ylsulfonyl)-1,2,3,4,4a,9a-hexahydro[1]benzofuro[2,3-c]pyridine]	> 1000	
CC12CCNCC1Oc1ccc(S(=O)(=O)c3cc[n+]([O-])cc3)cc12 (racemic) [Example 14, 4a-methyl-6-[(1-oxidopyridin-4-yl)sulfonyl]-1,2,3,4,4a,9a-hexahydro[1]benzofuro[2,3-c]pyridine]	> 1000	
CC(C)Oc1cccc(S(=O)(=O)c2ccc3c4c(oc3c2)C2(CCCOC2)NCC4)c1 (racemic) [Example 23, 7-{[3-(propan-2-yloxy)phenyl]sulfonyl}-3,4,5′,6′-tetrahydro-2H,4′H-spiro[1-benzofuro[2,3-c]pyridine-1,3′-pyran]]	< 500	
CCC1(C)NCCc2c1oc1cc(S(=O)(=O)c3cccc(F)c3)ccc21 (racemic) [Example 27, 1-ethyl-7-[(3-fluorophenyl)sulfonyl]-1-methyl-1,2,3,4-tetrahydro[1]benzofuro[2,3-c]pyridine]	< 500	
